Experimental data from ChEMBL document CHEMBL1201862, “PubChem BioAssay data set” (2004).
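A five-concentration, 48-hour dose response in 96-well plates underlies each endpoint, interpolated linearly between surrounding concentrations. GI50 = concentration required for 50% inhibition of growth.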 Active and inactive are the calls of the source. Cut-off read from the data, not from the text of the source: active = GI50 up to about 1.1 µM and inactive = higher.

Tests used:
Experiment in all cases: NCI-60 cell line screen, 48 h
SF-268 = tested on: SF-268
SW-620 = tested on: SW-620
MCF7 = tested on: MCF7
SF-539 = tested on: SF-539
HT-29 = tested on: HT-29
DLD-1 = tested on: DLD-1
OVCAR-4 = tested on: OVCAR-4
NCI-H460 = tested on: NCI-H460
PC-3 = tested on: PC-3
SK-MEL-5 = tested on: SK-MEL-5
RXF 393 = tested on: RXF 393
BT-549 = tested on: BT-549
NCI-H23 = tested on: NCI-H23
SK-MEL-28 = tested on: SK-MEL-28
ACHN = tested on: ACHN
OVCAR-8 = tested on: OVCAR-8
A498 = tested on: A498
MDA-MB-435 = tested on: MDA-MB-435
DU-145 = tested on: DU-145
MDA-MB-231 = tested on: MDA-MB-231

SMILES	GI50 (SF-268)	GI50 (SW-620)	GI50 (MCF7)	GI50 (SF-539)	GI50 (HT-29)	GI50 (DLD-1)	GI50 (OVCAR-4)	GI50 (NCI-H460)	GI50 (PC-3)	GI50 (SK-MEL-5)	GI50 (RXF 393)	GI50 (BT-549)	GI50 (NCI-H23)	GI50 (SK-MEL-28)	GI50 (ACHN)	GI50 (OVCAR-8)	GI50 (A498)	GI50 (MDA-MB-435)	GI50 (DU-145)	GI50 (MDA-MB-231)
COc1ccc2[nH]c3c(C)c4cc[n+](C)cc4c(C)c3c2c1	0.148 µM (active)	0.587 µM (active)	2.16 µM (inactive)	0.24 µM (active)	3.23 µM (inactive)	1.06 µM (active)	1.91 µM (inactive)	1.26 µM (inactive)	4.55 µM (inactive)	1.18 µM (inactive)	0.798 µM (active)	1.57 µM (inactive)	0.521 µM (active)	1.32 µM (inactive)	7.24 µM (inactive)	0.169 µM (active)	–	–	–	–
COc1ccc(Cc2c3cc(OC)c(OC)cc3cc[n+]2C)cc1	4.7 µM (inactive)	> 100 µM (inactive)	–	18.7 µM (inactive)	13.4 µM (inactive)	> 18 µM (inactive)	19.8 µM (inactive)	–	–	21.2 µM (inactive)	> 25.6 µM (inactive)	–	8.3 µM (inactive)	32.6 µM (inactive)	> 29.2 µM (inactive)	6.85 µM (inactive)	> 100 µM (inactive)	–	–	–
O=c1c2cc3c(=O)n(CCc4ccccc4CO)c(=O)c3cc2c(=O)n1CCc1ccccc1CO	> 100 µM (inactive)	> 100 µM (inactive)	–	> 100 µM (inactive)	> 100 µM (inactive)	> 100 µM (inactive)	> 100 µM (inactive)	> 100 µM (inactive)	–	> 100 µM (inactive)	> 100 µM (inactive)	–	> 100 µM (inactive)	> 100 µM (inactive)	> 100 µM (inactive)	> 100 µM (inactive)	> 100 µM (inactive)	–	–	–
COC(=O)[C@H]1N[C@@H](C(=O)OC)C23CCC[C@H]2CC[C@]1(C(OC)OC)C3	> 100 µM (inactive)	56.2 µM (inactive)	–	> 100 µM (inactive)	> 100 µM (inactive)	> 100 µM (inactive)	> 100 µM (inactive)	> 100 µM (inactive)	–	> 100 µM (inactive)	–	–	> 100 µM (inactive)	> 100 µM (inactive)	> 100 µM (inactive)	> 100 µM (inactive)	> 100 µM (inactive)	–	–	–
COC(=O)c1ccccc1NC(=O)C(=O)CC(=O)CC(c1ccccc1)c1c(O)c2ccccc2oc1=O (configuration not stated)	> 100 µM (inactive)	> 100 µM (inactive)	–	> 100 µM (inactive)	> 100 µM (inactive)	> 100 µM (inactive)	> 100 µM (inactive)	> 100 µM (inactive)	–	> 100 µM (inactive)	> 100 µM (inactive)	–	> 100 µM (inactive)	> 100 µM (inactive)	> 100 µM (inactive)	> 100 µM (inactive)	47.4 µM (inactive)	–	–	–
N=C(Nc1nc(-c2ccccn2)cc2ccccc12)c1ccccn1	0.065 µM (active)	0.0182 µM (active)	0.0106 µM (active)	0.097 µM (active)	0.01 µM (active)	0.0019 µM (active)	< 0.0561 µM (active)	0.0857 µM (active)	< 0.0129 µM (active)	0.0817 µM (active)	0.0168 µM (active)	–	0.0156 µM (active)	0.252 µM (active)	< 0.0145 µM (active)	< 0.0179 µM (active)	0.233 µM (active)	0.12 µM (active)	0.0673 µM (active)	< 0.0179 µM (active)
Cc1cccc(C(=O)c2cccc3ccccc23)c1C(=O)O	> 100 µM (inactive)	> 100 µM (inactive)	–	> 100 µM (inactive)	> 100 µM (inactive)	> 100 µM (inactive)	> 100 µM (inactive)	> 100 µM (inactive)	–	> 100 µM (inactive)	> 100 µM (inactive)	–	> 100 µM (inactive)	> 100 µM (inactive)	> 100 µM (inactive)	> 100 µM (inactive)	> 100 µM (inactive)	–	–	–
COc1cccc2c1C(=O)c1c(O)c3c(c(O)c1C2=O)CC(O)(C(O)CO)CC3OC1CC(N2CCOCC2)C(O)C(C)O1 (configuration not stated)	0.00231 µM (active)	0.00144 µM (active)	0.0223 µM (active)	0.0043 µM (active)	0.00308 µM (active)	< 0.001 µM (active)	0.00337 µM (active)	< 0.001 µM (active)	0.0123 µM (active)	0.00223 µM (active)	0.0155 µM (active)	0.0294 µM (active)	0.00464 µM (active)	0.00406 µM (active)	0.00193 µM (active)	0.00182 µM (active)	0.00135 µM (active)	0.00883 µM (active)	0.00703 µM (active)	0.0165 µM (active)
CC(C)=CC(=O)Cc1nc2ccccc2[nH]c1=O	> 100 µM (inactive)	> 100 µM (inactive)	–	> 100 µM (inactive)	> 100 µM (inactive)	> 100 µM (inactive)	52.2 µM (inactive)	> 100 µM (inactive)	–	> 100 µM (inactive)	18.4 µM (inactive)	–	> 100 µM (inactive)	> 100 µM (inactive)	> 100 µM (inactive)	–	> 100 µM (inactive)	–	–	–
CC12C(=CC(=O)CC1SCCS(=O)(=O)O)C(C#N)=C(N)N2c1ccc(Cl)c(Cl)c1 (configuration not stated)	> 100 µM (inactive)	78.9 µM (inactive)	–	> 100 µM (inactive)	> 100 µM (inactive)	> 100 µM (inactive)	> 100 µM (inactive)	10 µM (inactive)	–	> 100 µM (inactive)	36.8 µM (inactive)	–	> 100 µM (inactive)	> 100 µM (inactive)	> 100 µM (inactive)	> 100 µM (inactive)	> 100 µM (inactive)	–	–	–
C=C=CC(NC(=O)c1ccccc1)(C(=O)O)C(F)(F)F (configuration not stated)	> 100 µM (inactive)	> 100 µM (inactive)	–	> 100 µM (inactive)	> 100 µM (inactive)	> 100 µM (inactive)	> 10 µM (inactive)	> 100 µM (inactive)	–	> 100 µM (inactive)	> 100 µM (inactive)	–	> 100 µM (inactive)	> 100 µM (inactive)	> 100 µM (inactive)	> 100 µM (inactive)	> 100 µM (inactive)	–	–	–
Nc1nc(N)c2nc(-c3ccco3)cnc2n1	> 100 µM (inactive)	–	–	38.2 µM (inactive)	76.7 µM (inactive)	> 100 µM (inactive)	–	35.3 µM (inactive)	–	52.5 µM (inactive)	26.2 µM (inactive)	–	75 µM (inactive)	92 µM (inactive)	59.4 µM (inactive)	> 100 µM (inactive)	42.2 µM (inactive)	–	–	–
CCOC(=O)C(=O)NCCCN1CCOCC1	> 100 µM (inactive)	> 100 µM (inactive)	–	> 100 µM (inactive)	> 100 µM (inactive)	> 100 µM (inactive)	> 100 µM (inactive)	> 100 µM (inactive)	–	> 100 µM (inactive)	> 100 µM (inactive)	–	> 100 µM (inactive)	> 100 µM (inactive)	> 100 µM (inactive)	> 100 µM (inactive)	> 100 µM (inactive)	–	–	–
Nc1nc(SCc2ccccc2Cl)c2[nH]cnc2n1	58.7 µM (inactive)	> 100 µM (inactive)	–	74.8 µM (inactive)	–	69 µM (inactive)	–	48.9 µM (inactive)	–	48.8 µM (inactive)	23.1 µM (inactive)	–	66.1 µM (inactive)	68.9 µM (inactive)	31.5 µM (inactive)	55.7 µM (inactive)	15 µM (inactive)	–	–	–
O=C(Nc1ccc(Cl)cc1Cl)/C(Cl)=C1/Sc2ccccc2NC1=O	26.7 µM (inactive)	33.7 µM (inactive)	–	30.2 µM (inactive)	–	35.4 µM (inactive)	24.7 µM (inactive)	38.6 µM (inactive)	–	19.3 µM (inactive)	27.9 µM (inactive)	–	19.6 µM (inactive)	23.6 µM (inactive)	38 µM (inactive)	50.5 µM (inactive)	66.4 µM (inactive)	–	–	–
C/C(CCn1[nH]c(=O)ccc1=O)=N\NC(=O)C(=O)NN	> 100 µM (inactive)	> 100 µM (inactive)	–	> 100 µM (inactive)	> 100 µM (inactive)	> 100 µM (inactive)	> 100 µM (inactive)	> 100 µM (inactive)	–	> 100 µM (inactive)	> 100 µM (inactive)	–	> 100 µM (inactive)	> 100 µM (inactive)	> 100 µM (inactive)	> 100 µM (inactive)	43.8 µM (inactive)	–	–	–
Cc1c(/C=N/N(C)C)oc2c1cc(O)c1ncccc12	4.01 µM (inactive)	4.61 µM (inactive)	–	–	41.2 µM (inactive)	3.67 µM (inactive)	4.75 µM (inactive)	4.5 µM (inactive)	–	6.9 µM (inactive)	5.97 µM (inactive)	–	3.61 µM (inactive)	22.5 µM (inactive)	7.89 µM (inactive)	4.07 µM (inactive)	25.8 µM (inactive)	–	–	–
